Read-outs that look alike come from different tables or passages of the source.
Legend:
[1] = tested on: HPV-31 (strain: HQ53768.1); assay: HPV-31 genome plasmid replication assay in C-33 A cells; assay type: cell-based, human papillomavirus; conditions: for EC50 / EC90: host cell line C-33A
Protocol: (§1) The in vitro testing of the chlorin compounds and the positive control for antiviral cytopathic effect (CPE) was conducted through The National Institute of Allergy and Infectious Diseases (NIAID) NCEA Program. The in vitro testing was done by the method described by Beadle J R, Valiaeva N, Yang G, Yu J H, Broker T R, Aldern K A, et al. Synthesis and Antiviral Evaluation of Octadecyloxyethyl Benzyl 9-[(2-Phosphonomethoxy)ethyl]guanine (ODE-Bn-PMEG), a Potent Inhibitor of Transient HPV DNA Amplification. J Med Chem. 2016; 59(23):10470-8. PubMed PMID: 27933957. This method uses an HPV-11 replicon assay. The replicon (pMP619) is transfected into C-33 A cells grown as monolayers in 384-well plates. At 48 hours post transfection, the enzymatic activity of the destabilized NanoLuc reporter is assessed with NanoGlo reagent. […] The host C-33 A cells are epithelial cells originally isolated from the cervix of a uterine cancer patient. For reasons previously mentioned in this application, in vitro testing of compounds for potential antiviral activity against HPV strains cannot use human keratinocytes as the host cells due to the variable HPV replication activity with this cell line.
(§2) The EC50 (or Effective Concentration 50) is the concentration of the test compound in micromoles that reduces virus replication by 50%. The EC90 (or Effective Concentration 90) is the concentration of the test compound in micromoles that reduces virus replication by 90%. CC50 (or Cytotoxic Concentration 50) is the concentration of the test compound in micromoles that reduces the cell viability of the virus host cell by 50%. The SI50 (or Selectivity Index 50) is a measure of both safety and efficacy or therapeutic index and is calculated by dividing the CC50 by the EC50. The SI90 (Selectivity Index 90) is calculated by dividing the CC50 by the EC90.
(§3) The in vitro test method used to assess activity of copper chlorins according to embodiments herein against HPV-18 and HPV-31 used the same replication and quantification method described previously for Table 1 results but with HPV-18 and HPV-31 genome plasmids. Results of the in vitro testing of three of the same copper chlorins as used in Table 1, as well as the same control, against HPV 18 and HPV 31 are summarized in Table 2 and Table 3 below.

[2] = tested on: HPV-18 (strain: KC470230.1); assay: HPV-18 genome plasmid replication assay in C-33 A cells; assay type: cell-based, human papillomavirus; conditions: for EC50 / EC90: host cell line C-33A
Protocol: as §1, §2, §3

[3] = tested on: Human neonatal epidermal keratinocytes (HEKn); assay: Transcriptome study (Clariom S) of gene regulation in keratinocytes; assay type: cell-based; conditions: 20 ug/mL; 24-hour exposure; versus water control
Protocol: The transcriptome study of copper chlorins was conducted by Sunny Biodiscovery laboratory and Thermo-Fisher Scientific Microarray Research Services Laboratory, both of Santa Clara, California to determine gene regulatory activity and biomarkers associated with activity of the copper chlorins on human skin by assessing gene expression from keratinocyte culture after 24-hour exposure of each of the copper chlorins as previously detailed in U.S. Provisional Application Ser. No. 63/233,229 (filed on Aug. 14, 2021).
Human neonatal epidermal keratinocytes (HEKn) were obtained from Cell Applications 5 (San Diego, CA) and were plated in a 96 well plate (Bioland Scientific, Paramount, CA, item #701003 made of high clarity polystyrene) with keratinocyte growth media (Human EpiVita Serum-Free Growth Medium for Neonatal Cells; Cell Applications, San Diego, CA). Cells were mixed with growth media at a rate of 10,000 cells per 200 μl (approximately 10^4 cells per well) and added to the 96 wells (0.2 mL/well) and incubated overnight at 37° C.
Following the overnight incubation of keratinocytes, each of the 4 copper chlorins evaluated was separately dissolved in sterile distilled water at a concentration of 20 mg/mL. Dissolution occurs at 20-25° C. with slight agitation for 1-2 minutes until no solid particles were visible. This stock solution of 20 mg/mL was then further diluted with sterile water to a concentration of 500 μg/mL. The 500 μg/mL solution of each test copper chlorin was added to the cells in the growth media at a ratio of 1:20 (test solution: cells & media) and incubated in the wells for 24 hours at 37° C.
The following day the test solution and growth media were removed from the wells and the cells were rinsed with phosphate-buffered saline (PBS). The RNA from the cells treated with each of the test compounds was extracted and purified with a RNeasy Mini Plus Kit (Catalogue #74134; Qiagen, Germantown, MD) with automated lysing and homogenization using a Qiacube Connect robotic station (Qiagen, Germantown, MD). The protocol for RNA extraction is selected on the Qiacube Connect automated station and cell samples, labware, and reagents are loaded as instructed. Cells are first lysed and homogenized in highly denaturing guanidine-isothiocyanate-containing Buffer RLT Plus, which immediately inactivates RNases to ensure isolation of intact RNA. The lysate is passed through Qiacube Connect loaded gDNA Eliminator spin columns, 15 ethanol is added to the flow-through, and the samples are then applied to Qiacube preloaded RNeasy MinElute spin columns. RNA binds to the membrane and contaminants are washed away. High quality RNA is eluted and collected in a total of 30 μL sterile distilled water.
The stepwise procedure for production of RNA using RNeasy Plus procedure is outlined FIG. 4. Once collected, the purity of the RNA is assessed with the NanoDrop Lite spectrophotometer (Thermo Fisher Scientific, Waltham, MA) at 260 nm and 280 nm. The NanoDrop Lite unit is a small, stand-alone UV spectrophotometer that is designed 5 to measure microvolumes (1-2 μL) of nucleic acid and protein samples. Purity of the collected RNA was verified by adding 1 μL of the collected RNA to the NanoDrop Lite unit, selecting the RNA application on the NanoDrop Lite Home screen and following the stepwise measuring procedure as detailed in the NanoDrop Lite Manual.
The extracted RNA for each of the four treatment compositions evaluated from the above procedure was then transported on dry ice to a laboratory specializing in transcriptome analysis (Thermo Fisher Scientific Microarray Research Services Laboratory, Santa Clara, CA). The transcriptome profiling of the RNA samples was conducted using the Clariom S GeneChip® Pico Assay platform. […]

[4] = tested on: HPV-11 (HE611260.1 strain); assay: HPV-11 replicon assay (NanoLuc reporter) in C-33 A cells; assay type: cell-based, human papillomavirus; conditions: for EC90 / EC50: host cell line C-33A; for EC50: 48 hours post transfection
Protocol: as §1
The control compound, PMEG, has a molecular weight of 289.188 g/mol. The molecular weight of the copper chlorin compounds evaluated are (1) 661.5 g/mol for disodium copper isochlorin e4; (2) 710.5 g/mol for trisodium copper chlorin p6; (3) 724.15 g/mol for trisodium copper chlorin e6; and (4) 740 g/mol for trisodium copper rhodin g7. The antiviral test results in Table 1 for each treatment composition and the control are reported in micromoles (uM) for the EC50, EC90, and CC50. The SI 50 and SI 90 are calculated from the EC50, EC90, and CC50 data.
as §2

[5] = tested on: actinic keratosis; conditions: cited from earlier work
[6] = tested on: HPV-11 (HE611260.1 strain); conditions: HPV-11 replicon assay; reference range; read-out: EC50 value range of the reference compound for this assay; cited from earlier work
[7] = Cytotoxicity to virus host cell (CC50); assay type: cell-based, human; conditions: human, C-33A host cells
[8] = tested on: C-33 A cells; assay: Cytotoxicity to virus host cell (CC50); assay type: cell-based, human

For Disodium copper isochlorin e4, the EC50 [1] was 0.25 µM, the EC90 [1] was 4.45 µM and the EC50 [2] was 3.2 µM. For the same compound, the EC90 [2] was 6.09 µM, the “CDKN1A cyclin-dependent kinase inhibitor 1A (p21, Cip1) gene regulation (keratinocytes)” value [3] was “+2.46 fold” and the “EPGN Epithelial mitogen gene regulation (keratinocytes)” value [3] was −3.17 fold. The “KDM7A lysine (K)-specific demethylase 7A gene regulation (keratinocytes)” value [3] was “+2.62 fold”, the “UNC5B Unc-5 netrin receptor B gene regulation (keratinocytes)” value [3] was “+8.06 fold” and the EC90 [4] was 20.6 µM. It also gave an EC50 [4] of 4.63 µM.

For `C=Cc1c(C)c2cc3nc(c(CC(=O)[O-])c4[n-]c(cc5nc(cc1[n-]2)C(C)=C5CC)c(C)c4C(=O)[O-])C(CCC(=O)[O-])C3C.[Cu+2].[Na+].[Na+].[Na+]` (centres unmarked) [Trisodium copper chlorin e6], the “antiviral activity classification based on SI50” value [1] was “moderately active (SI50=10−49, moderately active)”, the EC50 [1] was 1.75 µM and the EC90 [1] was 3.8 µM. For the same compound, the EC50 [2] was 1.42 µM, the EC90 [2] was 2.97 µM and the “CDKN1A cyclin-dependent kinase inhibitor 1A (p21, Cip1) gene regulation (keratinocytes)” value [3] was “+2.22 fold”. The “CYB561 Cytochrome b561 gene regulation (keratinocytes)” value [3] was −2.28 fold, the “EPGN Epithelial mitogen gene regulation (keratinocytes)” value [3] was −2.56 fold and the “MAPK14 Mitogen-activated protein kinase 14 gene regulation (keratinocytes)” value [3] was −2.23 fold. For the same compound, the “EC50 converted from micromoles” value ([4]; converted with molecular weight 724.15) was 1.998 µg/mL, the EC90 [4] was 24.9 µM and the EC50 [4] was 2.76 µM.

In the case of `O=C(Cc1ccc(-c2ccc(OCCN3CCOCC3)cc2)cn1)NCc1ccccc1` [turbanibulin], the sustained complete clearance ([5]; after one year, estimated) is given as about 27% and the Initial complete clearance ([5]; trial 1 vs trial 2) is given as 44-54%.

In the case of `O=C(O)Cc1ccccc1Nc1c(Cl)cccc1Cl` [diclofenac], the AK recurrence rate ([5]; after 12 months from initial treatments) is given as 85%.

In the case of `Nc1nc2c(ncn2CCOCP(=O)(O)O)c(=O)[nH]1` [9-[2-(phosphono-methoxy)-ethyl]guanine, reference compound], the EC50 ([1]; Human papillomavirus) is listed as 3.92 µM, the EC90 ([1]; Human papillomavirus) is listed as 18.4 µM and the EC50 [6] is listed as 2 to 9.2 µM. The EC50 ([2]; Human papillomavirus) was 2.33 µM, the EC90 ([2]; Human papillomavirus) was 21.3 µM and the CC50 ([7]; HPV-11 test (Table 1)) was over 150 µM. The CC50 ([7]; HPV-18 test (Table 2)) was over 250 µM, the CC50 ([7]; HPV-31 test (Table 3)) was over 250 µM and the EC90 ([4]; Human papillomavirus) was over 150 µM. For the same compound, the EC50 ([4]; Human papillomavirus) was 2.27 µM.

For Trisodium copper rhodin g7, the EC50 [1] was 0.36 µM, the EC90 [1] was 1.62 µM and the “antiviral activity classification based on SI50” value [2] was “highly active (SI50>50 highly active)”. The EC50 [2] was 1.19 µM, the EC90 [2] was 2.62 µM and the EC90 [4] was 58.8 µM. For the same compound, the EC50 [4] was 4.48 µM.

For `C=Cc1c(C)c2cc3nc(c(C(=O)[O-])c4[n-]c(cc5nc(cc1[n-]2)C(C)=C5CC)c(C)c4C(=O)[O-])C(CCC(=O)[O-])C3C.[Cu+2].[Na+].[Na+].[Na+]` (centres unmarked) [Trisodium copper chlorin p6], the “KDM7A lysine (K)-specific demethylase 7A gene regulation (keratinocytes)” value [3] was “+2.38 fold”, the “UNC5B Unc-5 netrin receptor B gene regulation (keratinocytes)” value [3] was “+3.59 fold” and the CC50 [8] was 58.4 µM. It also gave an EC90 [4] of 23.6 µM and an EC50 [4] of 5.51 µM.
